The text below walks through data of patent US20110306576A1, “COMPOUNDS AND METHODS RELATING THERETO” (PHARMALUCIA LIMITED, priority 2009, published 2011).

A short description of series [1]: Singlet oxygen production (TPCPD decolourisation in dichloromethane). The note with it: singlet oxygen yield relative to methylene blue (= 1.0), time for 50% decrease in TPCPD absorption at 500 nm.
From the text: Thus the decrease in absorption at 500 nm was monitored spectrophotometrically with time using the method described by Cincotta et al. in “Novel red absorbing benzo[α]phenoxazinium and benzo[α]phenothiazinium photosensitizers: in vitro evaluation”, Photochem. […] To calculate the singlet oxygen yield for the derivative compounds of the present invention (ΦΔDer), the following formula was used:
In series [2] the test system is Escherichia coli (NCTC 10418). As to the kind of experiment: Antimicrobial screening, photobactericidal efficacy. It counts as cell-based. The method, then:
(§1) The photobactericidal efficacies of the derivatives in addition to that of the known photosensitiser methylene blue were measured against both Gram positive Staphylococcus aureus (NCTC 6571) and Enterococcus faecalis (NCIMB 13280) and Gram negative Escherichia coli (NCTC 10418), Proteus mirabilis (NCIMB 5887) and a clinical strain of Klebsiella pneumoniae bacteria. Both strains were grown in Mueller-Hinton Broth and then diluted to a concentration of 10^6 colony-forming units/ml. Aliquots of the strains were then incubated for 1 hour at 37° C. in microtitre trays with various concentrations of photosensitiser in a range of from 100 to 3 μM, with zero photosensitiser concentrations in each case for control purposes. The trays were then either illuminated for twenty minutes using an array of light-emitting diodes (660 nm) giving a light dose of 6.2 J cm^−2 or alternatively foil-covered to provide dark controls. From each well showing an inhibition of growth of the micro-organism, 1 μl was sub-cultured on nutrient agar, using the Miles-Misra method, and incubated for 18 hours at 37° C. The minimum bactericidal concentrations were then determined as the lowest concentration for each photosensitiser giving no bacterial growth.

In series [3] the test system is Proteus mirabilis (NCIMB 5887). Described as above. It counts as cell-based. As to conditions: for Minimum bactericidal/fungicidal concentration P. mirabilis Dark: foil-covered dark control; for Minimum bactericidal/fungicidal concentration P. mirabilis Light: illuminated 20 min, LED 660 nm, 6.2 J cm^−2. The method, then: as §1
Series [4] has as its system clinical strain of Klebsiella pneumoniae. The description is as above. As to conditions: for Minimum bactericidal/fungicidal concentration K. pneumoniae Dark: foil-covered dark control; for Minimum bactericidal/fungicidal concentration K. pneumoniae Light: illuminated 20 min, LED 660 nm, 6.2 J cm^−2. Type of series: cell-based. The method, then:
as §1

Series [5] concerns Staphylococcus aureus (NCTC 6571). The description is as above. Type of series: cell-based. The protocol:
as §1

Series [6] concerns Enterococcus faecalis (NCIMB 13280). Described as above. The note with it: for Minimum bactericidal/fungicidal concentration E. faecalis Dark: foil-covered dark control; for Minimum bactericidal/fungicidal concentration E. faecalis Light: illuminated 20 min, LED 660 nm, 6.2 J cm^−2. Type of series: cell-based. The protocol:
as §1

In series [7] the test system is Candida albicans (NCPF 8179). Kind of series: Antifungal screening. The note with it: Sabouraud broth and agar; for Minimum bactericidal/fungicidal concentration C. albicans Dark: foil-covered dark control; for Minimum bactericidal/fungicidal concentration C. albicans Light: illuminated 20 min, LED 660 nm, 6.2 J cm^−2. It counts as cell-based.
Series [8] is described as follows: Hydrophilic-lipophilic balance (Log P), phosphate-buffered saline / 1-octanol. The method, then: The data were calculated using the standard spectrophotometric method [ref] based on the relationship:
where A and A^1 are the absorption intensities before and after partitioning respectively and Vw and Vo are the respective volumes of the aqueous and 1-octanol phases. Determinations were repeated three times.

The conditions of series [9]: value given for the standard photosensitiser; cited from earlier work.
The mark [10] stands for this setting: foil-covered dark control, read-out: Minimum Bactericidal Concentration E. coli (Dark).
Setting [11] is: illuminated 20 min, LED 660 nm, 6.2 J cm^−2, 1 h incubation at 37° C., read-out: Minimum Bactericidal Concentration E. coli (Light).
[12] abbreviates: foil-covered dark control, read-out: Minimum Bactericidal Concentration S. aureus (Dark).
The mark [13] stands for this setting: illuminated 20 min, LED 660 nm, 6.2 J cm^−2, 1 h incubation at 37° C., read-out: Minimum Bactericidal Concentration S. aureus (Light).
Setting [14] is: partition between phosphate-buffered saline and 1-octanol, spectrophotometric method, repeated three times.
Setting [15] is: Escherichia coli, NCTC10418, foil-covered dark control, read-out: Minimum Bactericidal Concentration E. coli (Dark).
[16] abbreviates: Escherichia coli, NCTC10418, illuminated 20 min, LED 660 nm, 6.2 J cm^−2, 1 h incubation at 37° C., read-out: Minimum Bactericidal Concentration E. coli (Light).
Setting [17] is: Staphylococcus aureus, NCTC6571, foil-covered dark control, read-out: Minimum Bactericidal Concentration S. aureus (Dark).
Setting [18] is: Staphylococcus aureus, NCTC6571, illuminated 20 min, LED 660 nm, 6.2 J cm^−2, 1 h incubation at 37° C., read-out: Minimum Bactericidal Concentration S. aureus (Light).
The mark [19] stands for this setting: phosphate-buffered saline / 1-octanol.

Where two headings read alike, the source gives them in different places.

Take “3-(Di-n-hexylamino)-7-((2-(diethylamino)ethyl)(ethyl)amino)phenothiazinium iodide [Example 7b]”: the “Relative ΦΔ” value in series [1] was determined as 0.4. Moreover, in [2] (setting [10]), the MBC is listed as 25 µM. Besides, the MBC in [2] (setting [11]) is given as 6.25 µM. In addition, in series [3], the “Minimum bactericidal/fungicidal concentration P. mirabilis Dark” value is 100 µM and the “Minimum bactericidal/fungicidal concentration P. mirabilis Light” value is 0.39 µM. In addition, in series [4], the “Minimum bactericidal/fungicidal concentration K. pneumoniae Dark” value was 100 µM and the “Minimum bactericidal/fungicidal concentration K. pneumoniae Light” value amounted to 0.19 µM. Besides, the MBC in [5] (setting [12]) is given as 12.5 µM. The MBC in [5] (setting [13]) is recorded as 3.125 µM. For the same compound, in series [6], the “Minimum bactericidal/fungicidal concentration E. faecalis Dark” value was 100 µM and the “Minimum bactericidal/fungicidal concentration E. faecalis Light” value was 0.19 µM. For the same compound, in [7], the “Minimum bactericidal/fungicidal concentration C. albicans Dark” value was found to be 25 µM and the “Minimum bactericidal/fungicidal concentration C. albicans Light” value was 3.13 µM. Also, the logP (in general, the decadic logarithm of the partition coefficient of the neutral form, usually between octanol and water) in series [8] (setting [14]) was “+1.25”.
`CO[Si](CCCNc1ccc2nc3ccc(N(C)C)cc3[s+]c2c1)(OC)OC` [Example 2b, 3-(3-Trimethoxsilylpropyl)amino-7-dimethylaminophenothiazinium hydrogensulphate]: in series [3], the “Minimum bactericidal/fungicidal concentration P. mirabilis Dark” value is 100 µM and the “Minimum bactericidal/fungicidal concentration P. mirabilis Light” value was 1.56 µM. Also, in series [4], the “Minimum bactericidal/fungicidal concentration K. pneumoniae Dark” value worked out at 100 µM and the “Minimum bactericidal/fungicidal concentration K. pneumoniae Light” value is 1.56 µM. Besides, in series [6], the “Minimum bactericidal/fungicidal concentration E. faecalis Dark” value was 50 µM and the “Minimum bactericidal/fungicidal concentration E. faecalis Light” value amounted to 0.78 µM. Besides, in [7], the “Minimum bactericidal/fungicidal concentration C. albicans Dark” value was determined as 25 µM and the “Minimum bactericidal/fungicidal concentration C. albicans Light” value was 3.13 µM.
As to `CN(C)CCCN(CCCN(C)C)c1ccc2nc3ccc(N(CCCN(C)C)CCCN(C)C)cc3[s+]c2c1` [Example 4a, 3,7-Bis(bis(3-(dimethylamino)propyl)amino)phenothiazinium bromide], the MBC amounted to 12.5 µM in [2] (setting [15]), 3.12 µM in series [2] (setting [16]), 6.25 µM in series [5] (setting [17]) and 3.12 µM in series [5] (setting [18]).
On to `CCN(CC)CCCN(CCCN(CC)CC)c1ccc2nc3ccc(N(CCCN(CC)CC)CCCN(CC)CC)cc3[s+]c2c1` [Example 4b, 3,7-Bis(bis(3-(diethylamino)propyl)amino)phenothiazinium bromide], for which the MBC in series [2] (setting [15]) is 100 µM; in series [2] (setting [16]), 25 µM; in [5] (setting [17]) it was 100 µM; in series [5] (setting [18]), 50 µM. In series [8] (setting [19]), this compound came in with a logP of 0.11.
As to `CCN(CC)CCN(C)c1ccc2nc3ccc(N(C)CCN(CC)CC)cc3[s+]c2c1` [Example 4f, 3,7-Bis((2-(diethylamino)ethyl)(methyl)amino)phenothiazinium bromide], in series [1], the “Relative ΦΔ” value was determined as 0.6. Also, the MBC in series [2] (setting [15]) is > 100 µM; in series [2] (setting [16]), 3.12 µM; in series [5] (setting [17]), > 100 µM; in series [5] (setting [18]), 6.25 µM. The compound also came in with a logP in [8] (setting [19]) of 0.27.
Consider `CCN(CC)CCCC(C)Nc1ccc2nc3ccc(N(CC)CC)cc3[s+]c2c1` (stereo not drawn) [Example 7a, 3-(Diethylamino)-7-(5-(diethylamino)pentan-2-ylamino)phenothiazinium iodide], for which, in series [1], the “Relative ΦΔ” value stood at 0.2. In addition, the MBC in [2] (setting [15]) amounted to 100 µM; in series [2] (setting [16]) it was 50 µM; in series [5] (setting [17]) it was 100 µM; in series [5] (setting [18]) it was 25 µM. The logP in series [8] (setting [19]) was 0.65.
In the case of `CCCCN(CCCC)c1ccc2nc3ccc(N(CC)CCN(CC)CC)cc3[s+]c2c1` [Example 7c, 3-(Di-n-butylamino)-7-((2-(diethylamino)ethyl)(ethyl)amino)phenothiazinium iodide], the “Relative ΦΔ” value in [1] is 0.3. The MBC in [2] (setting [15]) was 25 µM. Besides, the MBC in series [2] (setting [16]) stood at 6.25 µM. Besides, in series [3], the “Minimum bactericidal/fungicidal concentration P. mirabilis Dark” value worked out at 100 µM and the “Minimum bactericidal/fungicidal concentration P. mirabilis Light” value turned out to be 0.78 µM. For the same compound, in series [4], the “Minimum bactericidal/fungicidal concentration K. pneumoniae Dark” value amounted to 100 µM and the “Minimum bactericidal/fungicidal concentration K. pneumoniae Light” value is 6.25 µM. Further, the MBC in series [5] (setting [17]) was determined as 25 µM. Further, the MBC in series [5] (setting [18]) is 12.5 µM. Besides, in series [6], the “Minimum bactericidal/fungicidal concentration E. faecalis Dark” value came out at 6.25 µM and the “Minimum bactericidal/fungicidal concentration E. faecalis Light” value was found to be 0.39 µM. For the same compound, in series [7], the “Minimum bactericidal/fungicidal concentration C. albicans Dark” value stood at 25 µM and the “Minimum bactericidal/fungicidal concentration C. albicans Light” value worked out at 3.13 µM. The same compound registered a logP in series [8] (setting [19]) of 1.09.
With `CCN(CC)CCN(C)c1ccc2nc3ccc(N(CC)CC)cc3[s+]c2c1` [Example 7d, 3-(Diethylamino)-7-((2-(diethylamino)ethyl)(methyl)amino)phenothiazinium iodide], in series [1], the “Relative ΦΔ” value stood at 1.4. Also, the MBC turned out to be 100 µM in [2] (setting [15]), 50 µM in series [2] (setting [16]), 50 µM in [5] (setting [17]) and 25 µM in series [5] (setting [18]). This compound registered a logP in series [8] (setting [19]) of 0.74.
For `CCCN(CCC)c1ccc2nc3ccc(N(CCCN(C)C)CCCN(C)C)cc3[s+]c2c1` [Example 7e, 3-(Bis(3-(dimethylamino)propyl)amino)-7-(di-n-propylamino)phenothiazinium iodide], the MBC in series [2] (setting [15]) was > 100 µM. In addition, the MBC in [2] (setting [16]) is 3.12 µM. Moreover, in series [3], the “Minimum bactericidal/fungicidal concentration P. mirabilis Dark” value was 100 µM and the “Minimum bactericidal/fungicidal concentration P. mirabilis Light” value was 0.39 µM. Further, in series [4], the “Minimum bactericidal/fungicidal concentration K. pneumoniae Dark” value stood at 100 µM and the “Minimum bactericidal/fungicidal concentration K. pneumoniae Light” value turned out to be 3.13 µM. Moreover, the MBC in series [5] (setting [17]) is > 100 µM. Moreover, the MBC in [5] (setting [18]) came to 3.12 µM. In series [6], the “Minimum bactericidal/fungicidal concentration E. faecalis Dark” value was 100 µM and the “Minimum bactericidal/fungicidal concentration E. faecalis Light” value amounted to 0.19 µM. Moreover, in [7], the “Minimum bactericidal/fungicidal concentration C. albicans Dark” value was 100 µM and the “Minimum bactericidal/fungicidal concentration C. albicans Light” value amounted to 3.13 µM.
Consider `OCCN(CCO)c1ccc2nc3ccc(NCCCN4CCOCC4)cc3[s+]c2c1.[I-]` [Example 7f], for which, in series [1], the “Relative ΦΔ” value turned out to be 0.2. Moreover, the MBC in series [2] (setting [10]) stood at 50 µM; in series [2] (setting [11]), 25 µM; in series [5] (setting [12]) it was 25 µM; in series [5] (setting [13]), 25 µM. Also, the logP entry in [8] (setting [14]) is “+0.57”.
With `CCCCN(CCCC)c1ccc2nc3ccc(N4CCN(CCN5CCN(c6ccc7nc8ccc(N(CCCC)CCCC)cc8[s+]c7c6)CC5)CC4)cc3[s+]c2c1.[I-].[I-]` [Example 7g, 7,7′-(4,4′-(ethane-1,2-diyl)bis(piperazine-4,1-diyl))bis(3-(dibutylamino)phenothiazin-5-ium)iodide], in [3], the “Minimum bactericidal/fungicidal concentration P. mirabilis Dark” value was determined as 100 µM and the “Minimum bactericidal/fungicidal concentration P. mirabilis Light” value was determined as 0.78 µM. Also, in [4], the “Minimum bactericidal/fungicidal concentration K. pneumoniae Dark” value was 100 µM and the “Minimum bactericidal/fungicidal concentration K. pneumoniae Light” value is 3.13 µM. For the same compound, in [6], the “Minimum bactericidal/fungicidal concentration E. faecalis Dark” value came out at 12.5 µM and the “Minimum bactericidal/fungicidal concentration E. faecalis Light” value was 1.56 µM. Moreover, in series [7], the “Minimum bactericidal/fungicidal concentration C. albicans Dark” value was determined as 25 µM and the “Minimum bactericidal/fungicidal concentration C. albicans Light” value was 3.13 µM.
On to `CN(C)c1ccc2nc3ccc(N(C)C)cc3[s+]c2c1` [Methylene blue, reference compound], for which the “Relative ΦΔ” value in [1] came out at 1.00. Also, the “singlet oxygen yield (ΦΔMB)” value in series [9] is recorded as 0.443. The MBC in series [2] (setting [16]) and in series [5] (setting [18]) was 25 µM each time.
